Measured values: the NIST ThermoML archive (doi:10.1021/je800012v)
Numbers after ± are expanded uncertainties.

Assay: xn = mol fraction of the nth substance listed
Details: Liquid

CCCCCl [1-chlorobutane] + CCCCCC
mass density [kg/m3]
Details	x1 = 0.1099	x1 = 0.212	x1 = 0.2925	x1 = 0.316	x1 = 0.405	x1 = 0.4978	x1 = 0.5975	x1 = 0.6869	x1 = 0.8294	x1 = 0.9025
323.15 K, 5000 kPa	–	–	691.59 ± 0.42	696.23 ± 0.42	714.41 ± 0.4	734.25 ± 0.38	756.52 ± 0.35	777.43 ± 0.33	812.8 ± 0.29	831.94 ± 0.27
323.15 K, 10000 kPa	663.04 ± 0.59	682.03 ± 0.56	697.57 ± 0.53	702.21 ± 0.53	720.41 ± 0.5	740.23 ± 0.47	762.49 ± 0.44	783.36 ± 0.41	818.69 ± 0.35	837.82 ± 0.32
323.15 K, 15000 kPa	668.53 ± 0.71	687.54 ± 0.67	703.11 ± 0.64	707.76 ± 0.63	725.96 ± 0.6	745.81 ± 0.56	768.07 ± 0.52	788.94 ± 0.48	824.21 ± 0.41	843.35 ± 0.38
323.15 K, 20000 kPa	673.62 ± 0.82	692.66 ± 0.78	708.23 ± 0.74	712.92 ± 0.73	731.15 ± 0.69	751.01 ± 0.65	773.25 ± 0.59	794.16 ± 0.55	829.43 ± 0.47	848.55 ± 0.42
323.15 K, 25000 kPa	678.38 ± 0.94	697.47 ± 0.88	713.06 ± 0.84	717.75 ± 0.83	736.01 ± 0.78	755.88 ± 0.73	778.17 ± 0.67	799.07 ± 0.61	834.36 ± 0.52	853.47 ± 0.47
323.15 K, 30000 kPa	682.82 ± 1.1	701.95 ± 0.99	717.58 ± 0.94	722.3 ± 0.93	740.59 ± 0.87	760.48 ± 0.81	782.79 ± 0.74	803.7 ± 0.68	839.01 ± 0.57	858.16 ± 0.51
323.15 K, 35000 kPa	687.05 ± 1.1	706.22 ± 1.1	721.89 ± 1	726.62 ± 1	744.94 ± 0.95	764.87 ± 0.89	787.22 ± 0.81	808.14 ± 0.74	843.47 ± 0.61	862.63 ± 0.55
333.15 K, 100 kPa	640.84 ± 0.35	659.59 ± 0.33	674.97 ± 0.32	679.61 ± 0.32	697.62 ± 0.31	717.27 ± 0.29	739.37 ± 0.27	760.13 ± 0.26	795.31 ± 0.24	814.35 ± 0.23
333.15 K, 2500 kPa	644.37 ± 0.41	–	–	–	–	–	–	–	–	–
